Test results as given in paper PMC10778198, “First-in-Human Dose-Escalation Study of the Novel Oral Depsipeptide Class I-Targeting HDAC Inhibitor Bocodepsin (OKI-179) in Patients with Advanced Solid Tumors” (Cancers, 2023).

System: patients with advanced solid tumors
Assay: phase I dose escalation: safety, DLT, MTD, RP2D (CTCAE v. 5)
Type: in vivo
Source text: Subsequent dosing cohorts were enrolled using a standard 3 + 3 design.
If any patient in any cohort of three patients developed a DLT during cycle 1, an additional three patients were recruited to expand the cohort to up to six evaluable patients. If two or more patients in any expanded cohort developed a DLT, this dose was considered non-tolerated, and dose escalation was discontinued. The MTD was defined as the highest dose level for which no more than one of six patients experienced a DLT.
Patients were continuously evaluated for adverse events throughout the study using the Common Terminology Criteria of Adverse Events (CTCAE v. 5). The patients underwent a clinical history and physical examination, an ECOG PS, a complete blood count (CBCs), chemistry, coagulation studies, urinalysis, a serum pregnancy test (as applicable), a triplicate ECG, an ophthalmology examination, and baseline tumor assessment at screening. During cycle 1, weekly history and physical examination, CBC, chemistry, coagulation parameters, urinalysis, and triplicate ECGs were performed; in subsequent cycles, weekly labs were limited to a CBC. Repeat ophthalmology examinations were performed at cycle 3, day 1, and at the end of treatment. Repeat tumor assessment was performed every 2 cycles (6 weeks) in accordance with RECIST 1.1.

[1] = 4:3 intermittent dosing schedule, all grades

Q: What does the source list for `CC(C)[C@H](N)C(=O)SCC/C=C/[C@@H]1CC(=O)NCc2nc(cs2)C(=O)NC(C)(C)C(=O)N[C@@H](C(C)C)C(=O)O1` [OKI-179, Bocodepsin]?
A: TEAE: Hypokalaemia (4:3, 350 mg (n = 3), G3): 0 n (%); TEAE: Muscular weakness (4:3, 350 mg (n = 3), G3): 0 n (%); TEAE: Nasal congestion (4:3, 350 mg (n = 3), G3): 0 n (%); TEAE: Nausea (4:3, 350 mg (n = 3), G3): 0 n (%); TEAE: Platelet count decreased (4:3, 350 mg (n = 3), G3): 0 n (%); TEAE: Proteinuria (4:3, 350 mg (n = 3), G3): 0 n (%); TEAE: Pyrexia (4:3, 350 mg (n = 3), G3): 0 n (%); TEAE: Vomiting (4:3, 350 mg (n = 3), G3): 0 n (%); TEAE: Weight decreased (4:3, 350 mg (n = 3), G3): 0 n (%); TEAE: Anemia (4:3, 450 mg (n = 6), G1): 0 n (%); TEAE: Back pain (4:3, 450 mg (n = 6), G1): 2 (33) n (%); TEAE: Cough (4:3, 450 mg (n = 6), G1): 1 (17) n (%); TEAE: Decreased appetite (4:3, 450 mg (n = 6), G1): 1 (17) n (%); TEAE: Diarrhea (4:3, 450 mg (n = 6), G1): 0 n (%); TEAE: Dyspnea (4:3, 450 mg (n = 6), G1): 0 n (%); TEAE: ECG QT prolonged (4:3, 450 mg (n = 6), G1): 1 (17) n (%); TEAE: Fatigue (4:3, 450 mg (n = 6), G1): 0 n (%); TEAE: Headache (4:3, 450 mg (n = 6), G1): 1 (17) n (%); TEAE: Hypokalaemia (4:3, 450 mg (n = 6), G1): 0 n (%); TEAE: Muscular weakness (4:3, 450 mg (n = 6), G1): 0 n (%); TEAE: Nausea (4:3, 450 mg (n = 6), G1): 2 (33) n (%); TEAE: Platelet count decreased (4:3, 450 mg (n = 6), G1): 1 (17) n (%); TEAE: Proteinuria (4:3, 450 mg (n = 6), G1): 0 n (%); TEAE: Pyrexia (4:3, 450 mg (n = 6), G1): 1 (17) n (%); TEAE: Vomiting (4:3, 450 mg (n = 6), G1): 1 (17) n (%); TEAE: Weight decreased (4:3, 450 mg (n = 6), G1): 1 (17) n (%); TEAE: Anemia (4:3, 450 mg (n = 6), G2): 0 n (%); TEAE: Back pain (4:3, 450 mg (n = 6), G2): 0 n (%); TEAE: Cough (4:3, 450 mg (n = 6), G2): 0 n (%); TEAE: Decreased appetite (4:3, 450 mg (n = 6), G2): 1 (17) n (%); TEAE: Diarrhea (4:3, 450 mg (n = 6), G2): 0 n (%); TEAE: Dyspnea (4:3, 450 mg (n = 6), G2): 0 n (%); TEAE: ECG QT prolonged (4:3, 450 mg (n = 6), G2): 0 n (%); TEAE: Fatigue (4:3, 450 mg (n = 6), G2): 0 n (%); TEAE: Headache (4:3, 450 mg (n = 6), G2): 0 n (%); TEAE: Hypokalaemia (4:3, 450 mg (n = 6), G2): 1 (17) n (%); TEAE: Muscular weakness (4:3, 450 mg (n = 6), G2): 0 n (%); TEAE: Nasal congestion (4:3, 450 mg (n = 6), G2): 0 n (%); TEAE: Nausea (4:3, 450 mg (n = 6), G2): 3 (50) n (%); TEAE: Platelet count decreased (4:3, 450 mg (n = 6), G2): 2 (33) n (%); TEAE: Proteinuria (4:3, 450 mg (n = 6), G2): 3 (50) n (%); TEAE: Pyrexia (4:3, 450 mg (n = 6), G2): 0 n (%); TEAE: Vomiting (4:3, 450 mg (n = 6), G2): 0 n (%); TEAE: Weight decreased (4:3, 450 mg (n = 6), G2): 0 n (%); TEAE: Anemia (4:3, 450 mg (n = 6), G3): 2 (33) n (%); TEAE: Back pain (4:3, 450 mg (n = 6), G3): 0 n (%); TEAE: Cough (4:3, 450 mg (n = 6), G3): 0 n (%); TEAE: Decreased appetite (4:3, 450 mg (n = 6), G3): 0 n (%); TEAE: Diarrhea (4:3, 450 mg (n = 6), G3): 0 n (%); TEAE: Dyspnea (4:3, 450 mg (n = 6), G3): 0 n (%); TEAE: ECG QT prolonged (4:3, 450 mg (n = 6), G3): 1 (17) n (%); TEAE: Fatigue (4:3, 450 mg (n = 6), G3): 1 (17) n (%); TEAE: Headache (4:3, 450 mg (n = 6), G3): 0 n (%); TEAE: Hypokalaemia (4:3, 450 mg (n = 6), G3): 0 n (%); TEAE: Muscular weakness (4:3, 450 mg (n = 6), G3): 1 (17) n (%); TEAE: Nasal congestion (4:3, 450 mg (n = 6), G3): 0 n (%); TEAE: Nausea (4:3, 450 mg (n = 6), G3): 0 n (%); TEAE: Platelet count decreased (4:3, 450 mg (n = 6), G3): 0 n (%); TEAE: Proteinuria (4:3, 450 mg (n = 6), G3): 0 n (%); TEAE: Pyrexia (4:3, 450 mg (n = 6), G3): 0 n (%); TEAE: Vomiting (4:3, 450 mg (n = 6), G3): 0 n (%); TEAE: Weight decreased (4:3, 450 mg (n = 6), G3): 0 n (%); TEAE: Anemia [1]: 40%; TEAE: Diarrhea [1]: 25%; TEAE: Fatigue [1]: 40%; TEAE: Nausea [1]: 63%; TEAE: Vomiting [1]: 30%; TEAE: anorexia [1]: 35%; TEAE: decreased platelet count [1]: 30%; grade 3 TEAE: anemia (4:3 schedule): 25%; grade 3 TEAE: fatigue (4:3 schedule): 15%; grade 3 TEAE: prolonged QT (4:3 schedule): 15%; grade 1 or 2 nausea (4:3 schedule, 450 mg): 83%; TEAE: Abdominal pain (5:2, 300 mg (N=6), All grades): 1 (17) N (%); TEAE: Anemia (5:2, 300 mg (N=6), All grades): 2 (33) N (%)
